Experiments:
C. elegans young adults = tested on: C. elegans young adults; set-up: method as in Taki et al., 2021a; conditions: previous HitFinder library screen, ref Taki et al., 2021a, cited from earlier work
UBL-5 = biological target: T1, UBL-5 (Caenorhabditis elegans, UniProt P91302); assay: Thermal proteome profiling (TPP); type: binding; conditions: compound 50 μM, C. elegans lysate, 37-67 °C
T1 construct: from tissue; host or cells: whole-worm lysate of C. elegans N2 (young adults / L4s)

[1] = tested on: adult females of Haemonchus contortus; assay: Motility of adult female H. contortus in vitro; type: cell-based; conditions: 40 μM; 24 h of incubation; normalised to negative control
Experimental: Adult H. contortus were collected from the abomasa of sheep infected for 10 weeks, washed extensively with phosphate-buffered saline (PBS, pH 7.4) and subsequently in RPMI 1640 media supplemented with final concentrations of 2 mM L-glutamine, 100 IU/mL of penicillin, 100 μg/mL of streptomycin and 0.25 μg/mL of amphotericin B (Thermo Fisher Scientific, Scoresby, VIC, Australia; this supplemented RPMI was designated RPMI*). Female and male worms were collected and separated immediately prior to compound testing.
The activity of UMW-9729 and six derivatives (12, 14, 15, 16, 18 and 25) was assessed on adult female specimens of H. contortus in an established assay ([Taki et al., 2020]). The compound was added in triplicate to the wells of a 24-well plate (cat. no. 3524; Corning, USA) at a concentration of 40 μM in 500 μL of RPMI* (RPMI supplemented with final concentrations of 2 mM L-glutamine, 100 IU/mL of penicillin, 100 μg/mL of streptomycin and 0.25 μg/mL of amphotericin B; Thermo Fisher Scientific, Scoresby, VIC, Australia). Two positive-control compounds, monepantel and moxidectin, and a negative control containing 1 % (v/v) DMSO only, were included in triplicates on the same plate. Three adult females were added to each of the triplicate wells containing either the test compound or the controls and placed in a CO2 incubator (10 % (v/v) CO2, 40 °C, >90 % relative humidity) for 1 day. A video recording (30 s) of each well was taken at 3 h, 6 h, 12 h and 24 h during the total incubation period to assess the reduction in worm motility, which was scored as 3 (“good”), 2 (“low”), 1 (“very low”) or 0 (“no movement”; cf. [Taki et al., 2020]). For each test or control compound, the motility scores for each of the triplicate wells were calculated, normalised with reference to the negative control (100 % motility) and recorded as a percentage.

H. contortus xL3s = assay: H. contortus xL3 motility dose-response assay; type: cell-based, Haemonchus contortus
Experimental: Immediately prior to use in assays, H. contortus L3s were exsheathed via exposure to 0.15 % (v/v) sodium hypochlorite for 20 min at 38 °C ([Preston et al., 2015]), achieving an exsheathment rate of 90 %. The larvae were then immediately washed five times with 50 mL of sterile physiological saline (pH 7.0) by centrifugation at 2000×g (5 min) and resuspended (at a concentration of 300 xL3s per 50 μL) in sterile (autoclaved) lysogeny broth (LB; cf. [Bertani, 1951]; [Taki et al., 2021b]), supplemented with final concentrations of 100 IU/mL of penicillin, 100 μg/mL of streptomycin and 0.25 μg/mL of amphotericin B (Fungizone®, cat. No. 15240-062, Gibco, Thermo Fisher Scientific, Waltham, MA, USA); this supplemented LB was designated LB*.
The dose-response assay for H. contortus followed a well-established protocol ([Taki et al., 2021b]); it was employed to evaluate the potency of hit compounds against this nematode. Test compounds were assessed individually for an effect on the motility of xL3s (10-point, 2-fold serial dilution in LB*, 40 μM–[…]). […] A solution of LB* was used as a negative control. The test compounds and positive control compounds (monepantel and moxidectin) were arrayed in triplicate across individual flat-bottom 96-well microplates, with six wells on each plate containing the negative control. Added to each well were 300 xL3s of H. contortus in 50 μL of LB* to give a final volume of 100 μL. Plates were then placed in a CO2 incubator (10 % (v/v) CO2, 38 °C, >90 % humidity; Forma, model no. 311, Thermo Fisher Scientific, USA). […] Over a period of 15 min, disturbance of an infrared beam in individual wells was recorded as an ‘activity count’. Raw ‘activity counts’ for individual wells were normalised to the negative-controls. The compound concentrations were log10-transformed and fitted using a variable slope four-parameter equation, using the ordinary least squares fit model, employing Prism (v.9.1.0 GraphPad Software, San Diego, CA, USA). Larval development was established at 168 h of incubation with compound, as described previously ([Preston et al., 2015]). The phenotypes of larvae were examined using a microscope ([Preston et al., 2015]) and recorded.

B0361.6 = biological target: T2, B0361.6 (Caenorhabditis elegans, UniProt Q10950); assay: Thermal proteome profiling (TPP); type: binding; conditions: compound 50 μM, C. elegans lysate, 37-67 °C
T2 construct: from tissue; host or cells: whole-worm lysate of C. elegans N2 (young adults / L4s)
T2 sequence (Q10950 whole entry): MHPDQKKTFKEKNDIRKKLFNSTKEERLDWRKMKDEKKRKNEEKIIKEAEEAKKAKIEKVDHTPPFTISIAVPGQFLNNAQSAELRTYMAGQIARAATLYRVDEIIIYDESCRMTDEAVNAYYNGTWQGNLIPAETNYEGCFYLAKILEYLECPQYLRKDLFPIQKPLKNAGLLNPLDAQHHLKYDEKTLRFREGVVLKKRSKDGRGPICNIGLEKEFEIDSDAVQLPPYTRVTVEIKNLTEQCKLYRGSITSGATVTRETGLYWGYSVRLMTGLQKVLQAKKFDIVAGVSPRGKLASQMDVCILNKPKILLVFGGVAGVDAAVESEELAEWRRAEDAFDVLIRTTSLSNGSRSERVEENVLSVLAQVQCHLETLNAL

UNC-11 = biological target: T3, UNC-11 (Caenorhabditis elegans, UniProt Q9XZI6); assay: Thermal proteome profiling (TPP); type: binding; conditions: compound 50 μM, C. elegans lysate, 37-67 °C
T3 construct: from tissue; host or cells: whole-worm lysate of C. elegans N2 (young adults / L4s)
T3 sequence (Q9XZI6 whole entry): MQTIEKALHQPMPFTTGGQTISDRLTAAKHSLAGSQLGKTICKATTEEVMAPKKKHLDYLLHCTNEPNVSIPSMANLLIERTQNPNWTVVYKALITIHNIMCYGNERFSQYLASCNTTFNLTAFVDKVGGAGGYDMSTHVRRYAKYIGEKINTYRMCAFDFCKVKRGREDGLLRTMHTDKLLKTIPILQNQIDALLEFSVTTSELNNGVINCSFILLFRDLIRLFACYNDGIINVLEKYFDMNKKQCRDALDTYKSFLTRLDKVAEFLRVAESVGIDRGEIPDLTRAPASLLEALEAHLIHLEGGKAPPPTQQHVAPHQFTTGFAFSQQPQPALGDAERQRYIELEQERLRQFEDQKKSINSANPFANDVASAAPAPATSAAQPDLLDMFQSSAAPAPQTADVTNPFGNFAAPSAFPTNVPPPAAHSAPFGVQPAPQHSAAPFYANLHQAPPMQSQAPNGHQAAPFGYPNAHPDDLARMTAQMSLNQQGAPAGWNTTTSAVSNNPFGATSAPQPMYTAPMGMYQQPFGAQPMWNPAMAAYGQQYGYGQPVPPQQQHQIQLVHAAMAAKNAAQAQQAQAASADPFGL

TRXR-1 = biological target: T4, TRXR-1 (Caenorhabditis elegans, UniProt Q17745); assay: Thermal proteome profiling (TPP); type: binding; conditions: compound 50 μM, C. elegans lysate, 37-67 °C
T4 construct: from tissue; host or cells: whole-worm lysate of C. elegans N2 (young adults / L4s)
T4 sequence (Q17745 whole entry): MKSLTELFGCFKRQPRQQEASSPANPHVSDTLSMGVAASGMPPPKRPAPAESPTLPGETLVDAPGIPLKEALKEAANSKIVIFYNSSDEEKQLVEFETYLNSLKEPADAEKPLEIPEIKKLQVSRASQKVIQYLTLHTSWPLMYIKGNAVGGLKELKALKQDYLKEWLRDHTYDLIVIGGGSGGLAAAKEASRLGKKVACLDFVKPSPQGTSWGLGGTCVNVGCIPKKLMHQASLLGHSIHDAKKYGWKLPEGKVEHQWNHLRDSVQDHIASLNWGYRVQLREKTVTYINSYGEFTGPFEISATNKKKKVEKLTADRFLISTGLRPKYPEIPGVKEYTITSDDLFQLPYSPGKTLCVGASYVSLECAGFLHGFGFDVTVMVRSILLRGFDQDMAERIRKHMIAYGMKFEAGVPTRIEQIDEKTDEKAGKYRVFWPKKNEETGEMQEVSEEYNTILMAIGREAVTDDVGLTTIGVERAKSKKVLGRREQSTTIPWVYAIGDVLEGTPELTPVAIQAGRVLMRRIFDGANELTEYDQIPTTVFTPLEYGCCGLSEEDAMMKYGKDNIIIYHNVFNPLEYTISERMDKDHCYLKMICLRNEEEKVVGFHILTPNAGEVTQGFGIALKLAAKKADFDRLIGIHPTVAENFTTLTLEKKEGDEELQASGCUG

T1 sequence (P91302 whole entry): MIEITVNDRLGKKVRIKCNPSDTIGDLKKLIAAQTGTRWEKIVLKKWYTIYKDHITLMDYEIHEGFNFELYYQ

C(#Cc1ccc(-c2ccn[nH]2)cc1)c1ccccc1 [UMW-9729]
maximum motility inhibition, young adults of C. elegans (C. elegans young adults): 88.9% | IC50 (C. elegans young adults; read-out: half-maximal inhibitory concentration (IC50), motility of young adults of C. elegans): 5.6 µM | F-statistic (UBL-5; NPARC): 34.8 | thermal stability of protein in the presence of compound (UBL-5): stabilised | reduction of worm motility, adult females of H. contortus [1]: did not | IC50 (H. contortus xL3s; Haemonchus contortus, 90 h, xL3s, 90 h incubation (table title), three independent assays in triplicate, read-out: Worm motility IC50 ± SD, H. contortus xL3s): 6.7 ± 0.4 µM | fold more active than moxidectin, H. contortus larvae (H. contortus xL3s; ratio of xL3 motility IC50 to moxidectin): ~3 fold | F-statistic (B0361.6; NPARC): 24.2 | thermal stability of protein in the presence of compound (B0361.6): stabilised | F-statistic (UNC-11; NPARC): 23.0 | thermal stability of protein in the presence of compound (UNC-11): stabilised | F-statistic (TRXR-1; NPARC): 20.2 | thermal stability of protein in the presence of compound (TRXR-1): stabilised

Source: paper PMC10992699, “Comparative structure activity and target exploration of 1,2-diphenylethynes in Haemonchus contortus and Caenorhabditis elegans” (International Journal for Parasitology: Drugs and Drug …, 2024)
